Test results as given in a melting point compilation (Tetko et al.; mined from patent text by program, amines drawn as free bases though some values may be those of a salt).

SMILES	melting point [°C]
N=C(Nc1ccc(F)cc1)Nc1ncccc1OCc1c(F)cccc1Cl	152 to 154
Cc1cc(C(=O)Nc2ccccc2O)cc(C)c1O	142 to 145
COc1cc(C=O)cc(OC)c1OCc1ccc([N+](=O)[O-])cc1	148 to 149
O=C(O)c1cn(C2CC2)c2c(F)c(N3CCOC(CN4CCCCC4)C3)c(F)cc2c1=O (stereo not drawn)	160 to 162
CC(C(=O)O)n1c(-c2ccc(Cl)cc2)nc2cccnc21 (stereo not drawn)	226 to 229
O=C(CCC(O)c1ccc(CCNS(=O)(=O)c2ccc(Cl)cc2)cc1)Nc1nnn[nH]1 (stereo not drawn)	194 to 196
O=C1CCC(NC(=O)C(Cl)(Cl)Cl)c2ccsc21 (stereo not drawn)	167 to 171
COc1ccc2c(c1)CCN=C2C	206 to 207
CC(=O)OCC(=O)c1ccc(Cl)c(Cl)c1	68 to 70
COC(=O)c1coc2cc(Oc3ccnc(N)n3)ccc12	194 to 196
COc1cccc2c1CC1c3c(cc(OC)c(OC)c3-2)CCN1C (stereo not drawn)	184 to 185
CN(C(=O)Cl)c1ccc2c(c1)OCO2	71 to 73
CC1CCN(c2ccc(Nc3ncc4c(n3)S/C(=C/c3ccc([N+](=O)[O-])cc3)C(=O)N4)cc2)CC1	280 to 282
CCOC(=O)C1CC(=O)c2c(C)c(O)c(C)c(C)c2O1 (stereo not drawn)	120 to 121
CCc1cn(C)c(C2Cc3ccccc3N2C(C)=O)n1 (stereo not drawn)	105 to 106
CN1CCN(C2=Nc3ccccc3N(C=O)c3ccncc32)CC1	196
Nc1nc2c(s1)CCc1nc3ccccn3c1-2	249
Clc1ccc(Nc2nnc(Cc3ccncn3)c3ccccc23)cc1	174 to 176
O=C(NCCO)NCCCCC1CCSS1 (stereo not drawn)	50 to 65
COc1c(N2CC(C)C(C)(N)C2)c(F)cc2c(=O)c(C(=O)O)cn(C3CC3F)c12 (stereo not drawn)	195 to 196
O=C1CCNCCNC(=O)CCNCCN1	198 to 199
N#Cc1ccc2c(c1)Sc1ccc(N)cc1C=C2	181 to 183

SMILES	melting point [°C]
Cc1c(Cl)nn(-c2ccc(Cl)cc2)c1Cl	90 to 91.5
CCOC(=O)CCc1cc(O)nn1C(C)C	119 to 120
CC(C)OC(=O)N1CCN(c2ccn3ncc(-c4cccn(C)c4=O)c3n2)CC1	206 to 207
Cn1ncc(C(=O)N2CCC2)c1C(=O)Nc1ccn2nc(-c3cccc(F)c3)nc2c1	232 to 236
O=C(O)CCCOc1ccc([N+](=O)[O-])cc1	116 to 118
CCOc1cc2ncc3c(N)nc(-c4ccc(Br)cc4)cc3c2cc1OCC	230 to 235
Cc1ccc2c(N)c(Cl)ccc2n1	196 to 197
Fc1ccccc1CC1CCN(C2CC=C(c3ccc4c(c3)OCO4)CC2)CC1 (stereo not drawn)	118 to 119
CCOC(=O)c1cnc2ccc(-c3ccc(Cl)cc3)cn12	130
COC(=N)c1ncn(C2OC(CO)C(O)C2O)n1 (stereo not drawn)	150 to 153
N#Cc1ccc(-c2cn(-c3ccc(I)cc3)c(S)n2)cc1	285 to 290
CCCn1cc(-c2ccc3cc4c(cc3c2)C(C)(C)CCC4(C)C)cc1C(=O)O	143 to 145
CN(C)C=Cc1cccnc1C#N	71.5 to 72
CCCn1c(=O)cc(OCC)n(Cc2ccc(-c3ccccc3-c3nnn[nH]3)cc2)c1=O	108 to 119
COC=NC(C#N)=C(N)C#N	138 to 139
O=C(Nc1ccc(F)cc1F)c1cccc(Cl)n1	86 to 87
O=C(O)CCC(=NO)c1ccc(-c2ccc(Cl)cc2F)cc1	148 to 150
CCCCn1c(C)c(C)cc(NC(=O)c2ccc(F)cc2)c1=O	129 to 130
O=C1CCCCc2ccccc21	79 to 84
N#CCCSCc1csc(NC(=N)N)n1	127 to 128
COc1ccc2nc(-c3cc(C)c(OCCN4CCCC4)c(C)c3)[nH]c(=O)c2c1	201 to 203
Cc1cc(NCCNc2cc(C)[nH]n2)n[nH]1	255 to 257

SMILES	melting point [°C]
COc1cc2c(c(OC)c1OC)CN(CCc1ccc([N+](=O)[O-])cc1)CC2	110
CC(O)c1ccc(-c2ccc(C(F)(F)F)cc2)cc1 (stereo not drawn)	116 to 117
COCC(C)OC(=O)c1ccc([N+](=O)[O-])cc1[N+](=O)[O-] (stereo not drawn)	42
CS(=O)(=O)Cc1cnc2ccccc2c1Cl	202 to 204
O=C(NCCCCOc1ccc(-n2ccnc2)cc1)Nc1ccc(Br)cc1	157 to 159
CC(C)c1nccn1-c1ccc([N+](=O)[O-])cc1SC(Cl)(Cl)Cl	135
COc1ccc2cc(C(C)C(O)(P(=O)(O)O)P(=O)(O)O)ccc2c1 (stereo not drawn)	205
Cc1csc2c(=O)n(N=Cc3ccc(Cl)cc3)cnc12	213 to 215
COc1ccc(C=C2C(=O)c3cc(O)ccc3OC2c2ccc(OC)cc2)cc1 (stereo not drawn)	199 to 201
N#Cc1cccc2c(N)c([N+](=O)[O-])ccc12	260 to 262
CCOC(=O)C1=C(C)NC(c2csc(NC(C)=O)n2)=NC1c1ccc(F)cc1Cl (stereo not drawn)	220 to 223
CCCNC(=O)c1ccsc1N=C(OCCC)OCCC	57 to 58
CC(C)c1cc(NS(=O)(=O)c2cc(C3(O)CCC(=O)N3C)ccc2Cl)cc(C(C)C)c1O (stereo not drawn)	198 to 200
C=CC(=O)c1cn(C)c2ccccc12	106 to 107
Cc1nccn1Cc1c(C(=O)O)nc2c(=O)[nH]c3cc(C(F)(F)F)ccc3n12	> 250
CC(C)C1COc2ccccc2O1 (stereo not drawn)	124 to 125
CC12CCC(CN([Si](C)(C)C)S(=O)(=O)C1)C2(C)C (single isomer, unassigned; (-))	63 to 73
Cc1[nH]c(=O)c(C#N)cc1-c1ccc(CC(=O)O)cc1	280 to 282
Cc1cc(-c2nc3ccccc3[nH]2)n[nH]1	322 to 324
NC(=O)c1c(I)c(C(=O)NC(CO)CO)c(I)c(C(=O)NC(CO)CO)c1I	246 to 252
CN1CCC(c2c[nH]c3ccc(NC(=O)c4cccc(F)c4)nc23)CC1	129 to 130

Second part, the compound after the results:

melting point [°C]	SMILES
122	CO/N=C(/C(N)=O)c1ccccc1COc1cc(C)ccc1C
219 to 223	Nc1ncnc2c1c(-c1cccc(CO)c1)nn2Cc1oc2ccccc2c(=O)c1-c1ccccc1
189 to 190	CCC(C(N)=O)c1c(C(O)(C(F)(F)F)C(F)(F)F)ccc2ccccc12 (stereo not drawn)
62 to 64	CCOCCN(C(=O)N(CCCl)N=O)C1(O)C(CO)OC(OC2CCCCC2)C1O (stereo not drawn)
131 to 133	CC(C)(C)OC(=O)NC(Cc1ccccc1)C(O)CNCC(O)C(Cc1ccccc1)NC(=O)OC1c2ccccc2CC1O (stereo not drawn)
167 to 168	CCOC(=O)N(C)C1CCc2c([nH]c3ccccc23)C1 (stereo not drawn)
278 to 279	CN1C(C(=O)Nc2cccc(F)c2)=C(O)c2ccc3ccccc3c2S1(=O)=O
111	COc1ccc(C2CC(c3ccccc3)=NN2c2ccc(S(N)(=O)=O)cc2)cc1 (stereo not drawn)
146 to 148	CCSC(NC(C)=O)C(=O)NCc1ccccc1 (stereo not drawn)
203 to 204	COc1ccc(CNc2nc[nH]n2)cc1OC1CCCC1
116 to 117	Cc1oc(-c2ccccc2)nc1COc1ccccc1CON=C(CCC(=O)O)c1ccccc1
140 to 142	CCCCc1oc2ccccc2c1/C=N/OCCCOc1ccc(C(=O)O)c(O)c1
106	Cc1ccc(S(=O)(=O)N2CCC[C@H](CC#N)c3ccccc32)cc1
> 230	CCc1nn2c(N)c3c(nc2c1S(=O)(=O)c1ccccc1)CCC3
65 to 69	O=C1c2ccccc2C(c2ccccc2)N1C1CCN(CCC(c2ccccc2)c2ccccc2)CC1 (stereo not drawn)
138	Cn1ccc2cc(/C=C/C3=CCN(Cc4ccccc4)CC3)ccc21
149 to 150	CN1C(C(=O)Nc2ccccn2)=C(OCOC(=O)c2ccccc2)c2ccccc2S1(=O)=O
155	COc1cccc(OC)c1C(=O)P(=S)(C(=O)c1c(OC)cccc1OC)c1ccccc1
80 to 83	Cc1c(CC(=O)N[C@@H](CO)C(=O)O)cc(-c2ccc(S(C)(=O)=O)cc2)n1-c1ccccc1

melting point [°C]	SMILES
322 to 324	CC(C)c1ccccc1-n1c(=O)[nH]c2c(C(N)=O)nc(-c3cccc(O)c3)nc21
80	CCOC(=O)C1(Nc2ccc(Oc3ccccc3)cc2)CC1
155	OC12N=C(c3ccccc3)SC1Cc1cc(Cl)ccc12 (stereo not drawn)
188	CCOC(=O)c1c(N2CCN(C)CC2)c2cc(C)ccc2n(-c2ccccc2)c1=O
136 to 137	O=C(O)CCc1oc(Oc2ccccc2)nc1-c1ccc(Cl)cc1
159 to 163	O=C(O)Cn1c(=O)c(-c2ccccc2Cl)cc2cnc(NC3C4CN(Cc5ccccc5)CC43)nc21 (stereo not drawn)
142 to 143	CC(C)(C)OC(=O)NN(C[C@H](O)[C@H](Cc1ccccc1)NC(=O)OCc1ccccc1)C1CCCCC1
108 to 112	CN1C(=O)CCCC1(O)C=Cc1ccccc1 (stereo not drawn)
174 to 176	O=C(NCC(=O)N1c2ccccc2N(Cc2ccccc2)C(=O)[C@H]2CCC[C@H]21)c1ccc2c(c1)OCO2 (relative stereo)
149 to 150	O=C(O)Cc1ccc2c3ccccc3n(Cc3ccccc3)c2c1
178	O=C(CCCc1ccccc1)N[C@@H](Cc1ccccc1)C(=O)O
185 to 186	COc1ccccc1NC(=NC#N)NC(NC(=O)c1ccc(Cl)cc1)C(C)(Cl)Cl (stereo not drawn)
223 to 224	CCn1c(=O)c2c(nc(/C=C/c3cccc(OC(=O)c4ccccc4)c3)n2C)n(CC)c1=O
135 to 158	CCOC(=O)c1c(Nc2ccccc2SC)n[nH]c1C
87 to 92	COc1ccc(CC(=O)c2ccccc2)cc1
172	O[C@@H]1CN=C(c2ccc3ccccc3c2)O[C@H]1c1ccccc1 (racemic)
142 to 143	O=C(OCc1cccnc1)c1ccc(F)cc1
136 to 137	C[C@H](CSC(=O)c1ccccc1)C(=O)N1C(c2cccs2)SC[C@H]1C(=O)O (stereo partly drawn)
62 to 64	Cc1cc(SC(C)c2cccc3cn(-c4ccc(C(F)(F)F)cc4)nc23)ccc1OCC(=O)O (stereo not drawn)
